Melting point data for 120 compounds are collected here from a melting point compilation (Tetko et al.).

By melting point is commonly meant the temperature, or range, at which the solid turns liquid.

In the case of `Cc1cc(S(=O)(=O)N(C)C)cc(N)c1C`, the melting point fell in the range of 178 to 180 °C.

For `CCOc1ccc(OC)cc1N`, the melting point was 45 to 47 °C.

On to `CC(=O)c1cnn(-c2ccc(C#N)cc2)c1C`, for which the melting point fell in the range of 152 to 154 °C.

In the case of `CCCn1c(N)cc(=O)n(C)c1=O`, the melting point fell in the range of 166 to 168 °C.

`COc1ccc(-c2csc3ncnc(Cl)c23)cc1` yielded a melting point of 163 to 167 °C.

The compound `O=C(O)C1CCCCN1C(=O)c1cccnc1` (stereo not given) gave a melting point of 188 to 190 °C.

`Cc1nc(-c2ccccn2)nc(O)c1C` showed a melting point of 145 to 147 °C.

`O=CC1=Cc2c(ccc3ccccc23)OC1` displayed a melting point of 144 to 146 °C.

`CCc1cccc2c(C3CCNCC3)c[nH]c12` yielded a melting point of 183 to 185 °C.

Turning to `CC(C)c1cc(C(C)C)c([N+](=O)[O-])cc1[N+](=O)[O-]`, the melting point fell in the range of 77 to 79 °C.

For the compound `NNc1ccc([N+](=O)[O-])cc1S(=O)(=O)Nc1ccccc1Cl`, the melting point fell in the range of 220 to 229 °C.

Consider `CC(C)=C(F)C(=O)O`, for which the melting point lay in the range of 64 to 66 °C.

For `CC(O)c1ccc2c(c1)NC(=O)CO2` (stereo not given), the melting point was 137 to 139 °C.

In turn, `N=C(N)Nc1nc2ccccc2o1` had a melting point of 179 to 181 °C.

Compound `COC(=O)c1ccoc1CSc1ccccc1C(=O)O` came in with a melting point of 157 to 159 °C.

In turn, `COC(=O)COc1c(C)cc(C(=O)O)cc1C` registered a melting point of 173 to 175 °C.

`Cc1ccc(-c2n[nH]c(=O)c3ccccc23)cc1C`: the melting point lay in the range of 252 to 254 °C.

Consider `CC(C)Oc1ccc(NS(=O)(=O)CC(=O)O)cc1`, for which the melting point lay within 116 to 118 °C.

In turn, `O=C1Nc2cc(Br)ccc2C1=O` yielded a melting point of 259 to 261 °C.

`CC(=O)c1nc2ccc(Cl)cc2[nH]1` came in with a melting point of 173 to 175 °C.

For `COc1cccc(NC2=NC(C)(C)CS2)c1`, the melting point was in the range of 105 to 107 °C.

`Cc1ccccc1-c1nnc(Cl)n1-c1ccccc1C` yielded a melting point of 200 to 202 °C.

Take `Clc1ccc2nc(Cl)nc(Cl)c2c1`: the melting point lay within 89 to 91 °C.

In turn, `CC(O)C(NC(=O)C1CCCC1)C(=O)O` (stereo not given) came in with a melting point of 145 to 147 °C.

Consider `COC(=O)c1ccccc1NC(=O)OCC(F)(F)F`, for which the melting point fell in the range of 86 to 88 °C.

In turn, `COC(=O)c1cc(S(=O)(=O)Cl)c(C(=O)OC)s1` displayed a melting point of 129 to 131 °C.

In turn, `CNc1ncnc2nc[nH]c12` showed a melting point of 316 to 318 °C.

`Nc1nnc(Cc2ccc3ccccc3c2)o1` returned a melting point of 219 to 221 °C.

`Cc1cc(C(=O)O)c(C)n1CC1CC1`: the melting point was in the range of 179 to 181 °C.

With `O=Cc1ccc(OCc2ccccc2)c(Br)c1`, the melting point is 96 to 98 °C.

In turn, `N#Cc1cc(C(F)(F)F)ccc1C(=O)O` yielded a melting point of 113 to 115 °C.

The compound `CC(C)(C)OC(=O)N1CCC(CC(=O)O)CC1` displayed a melting point of 98 to 100 °C.

The compound `NC(=NO)C12CC3CC(CC(C3)C1)C2` registered a melting point of 152 to 154 °C.

For `CNS(=O)(=O)c1ccc(Cl)s1`, the melting point lay in the range of 45 to 47 °C.

On to `Nc1nc(-c2ccc(OC(F)F)cc2OC(F)F)cs1`, for which the melting point lay within 86 to 88 °C.

In the case of `CCSc1ccc(C(=O)O)cn1`, the melting point was 123 to 125 °C.

For `O=C(O)c1c2c(nc3ccccc13)CCN(Cc1ccccc1)C2`, the melting point lay within 224 to 226 °C.

`Cc1ccc2c(C)cc(Cl)nc2c1` displayed a melting point of 49 to 51 °C.

The compound `COc1ccc2cc(/C=C/C(=O)O)ccc2c1` returned a melting point of 183 to 195 °C.

For the compound `NC(CC(=O)Nc1ccccc1)=NO`, the melting point lay in the range of 156 to 158 °C.

In turn, `O=C(O)c1ccccc1OCc1cccnc1` yielded a melting point of 160 to 162 °C.

For `O=C(O)c1csc(-c2cccc3ccccc23)n1`, the melting point fell in the range of 144 to 146 °C.

`O=C(CN1CCCC1)Nc1c(I)cc(I)cc1I` returned a melting point of 184 to 186 °C.

For `Cc1cc(CCC(=O)O)c(C)s1`, the melting point is 57 to 59 °C.

In the case of `Cc1ccc(OCCCC(=O)O)cc1C`, the melting point lay within 90 to 92 °C.

Turning to `Cc1cc(C)c(C(N)=O)c(Cl)n1`, the melting point lay in the range of 172 to 174 °C.

For the compound `COC(=O)Cc1ccc(Oc2ccnc(C#N)c2)cc1`, the melting point is 120 to 122 °C.

Take `O=C(O)CCOc1ccc(Cl)cc1[N+](=O)[O-]`: the melting point is 127 to 129 °C.

Compound `O=[N+]([O-])c1ccc(S(=O)(=O)Cl)c(Br)c1` returned a melting point of 70 to 72 °C.

In turn, `Cn1ccnc1SCC(=O)Nc1ccc(C(=O)O)cc1` came in with a melting point of 171 to 173 °C.

The compound `Cc1ncc(CN)c(O)n1` displayed a melting point of 194 to 196 °C.

Consider `COCCOc1ccc(F)cc1[N+](=O)[O-]`, for which the melting point was in the range of 54 to 56 °C.

Compound `Sc1nnc(NCC2CCCO2)s1` (stereo not given) gave a melting point of 123 to 125 °C.

`N#CCOc1ccccc1C=O` returned a melting point of 79 to 81 °C.

As for `CCOC(=O)c1ccn(-c2cccc(N)c2)n1`, the melting point lay in the range of 97 to 99 °C.

Consider `O=C(c1ccc(O)cc1)N1CCc2sccc2C1`, for which the melting point was in the range of 200 to 202 °C.

In the case of `Cc1nc(C)c(NC(=O)OC(C)(C)C)s1`, the melting point fell in the range of 90 to 92 °C.

Compound `CC(=O)C12CC3CC(C1)CC(C(=O)O)(C3)C2` gave a melting point of 123 to 125 °C.

Compound `CCc1cc(=O)[nH]c(-c2ccnc(Cl)c2)n1` yielded a melting point of 217 to 219 °C.

Compound `NC(=O)Nc1ccc2c(c1)OCO2` came in with a melting point of 178 to 182 °C.

The compound `OCc1cc(Br)cc(CO)c1O` registered a melting point of 164 to 166 °C.

Compound `Fc1cc(CCl)c2c(c1)COC(c1ccsc1)O2` (stereo not given) yielded a melting point of 77 to 79 °C.

In turn, `CCCc1c(C(=O)O)cnn1-c1cccc(F)c1` displayed a melting point of 97 to 99 °C.

The compound `CS(=O)(=O)N1CC(C(=O)O)Oc2ccccc21` (stereo not given) yielded a melting point of 167 to 169 °C.

Regarding `Cc1noc(C)c1S(=O)(=O)NCC(=O)O`, the melting point was 113 to 115 °C.

As to `NC(=S)c1ncc(N)s1`, the melting point fell in the range of 191 to 193 °C.

`Nc1cccc(C(=O)N2CCOCC2)c1` showed a melting point of 82 to 84 °C.

With `CS(=O)(=O)OC1CCCC(S(C)(=O)=O)C1` (stereo not given), the melting point was in the range of 119 to 121 °C.

Take `O=C(O)c1c[nH]c(=O)[nH]1`: the melting point was in the range of 232 to 236 °C.

For `O=C(O)CCCCCCN1C(=O)C=CC1=O`, the melting point was in the range of 79 to 81 °C.

On to `NC(=O)Nc1ccccc1-c1ccccc1`, for which the melting point was in the range of 155 to 157 °C.

Take `Cc1cccc(-c2nnc(CO)o2)c1`: the melting point is 82 to 84 °C.

Consider `Cc1cc(N)n(-c2cc(Cl)ncn2)n1`, for which the melting point lay within 171 to 173 °C.

Regarding `CCNC(=O)c1cccc(C)c1O`, the melting point lay within 64 to 66 °C.

In the case of `Nc1cnn(-c2cccc(C(F)(F)F)c2)c1`, the melting point was in the range of 82 to 84 °C.

`O=S1(=O)CCCN1c1cccc(Cl)c1` showed a melting point of 85 to 87 °C.

Compound `Cc1ccccc1-c1cc(N)on1` registered a melting point of 99 to 101 °C.

`ClCc1ncc(-c2ccccc2)s1` showed a melting point of 39 to 41 °C.

Compound `NCCc1c[nH]c2cc(F)ccc12` showed a melting point of 74 to 76 °C.

As to `O=C(O)c1cccc(-n2ccc(C(F)(F)F)n2)c1`, the melting point is 159 to 161 °C.

Regarding `CNc1cc(C(=O)O)c2ccccc2n1`, the melting point lay in the range of 346 to 348 °C.

On to `O=C1CCC(C(=O)O)CN1` (stereo not given), for which the melting point lay within 174 to 176 °C.

In turn, `O=C(c1c[nH]c2ccccc12)C(Cl)c1ccccc1` (stereo not given) returned a melting point of 124 to 126 °C.

The compound `CCn1ccnc1S` displayed a melting point of 78 to 80 °C.

`CC1(C)C(=O)Nc2ccc(C(=O)CCl)cc21` registered a melting point of 233 to 235 °C.

Compound `CC(C)(C)OC(=O)Nc1ccc(C(=O)O)cc1O` yielded a melting point of 179 to 181 °C.

With `Cc1nn(C)c2c1NCCS2(=O)=O`, the melting point was 110 to 112 °C.

Consider `N#CC1(c2cccc(Br)c2)CCOCC1`, for which the melting point was in the range of 90 to 92 °C.

`O=S(=O)(c1ccc2c(c1)CCC2)N1CCNCC1`: the melting point lay in the range of 90 to 92 °C.

On to `O=C(O)CCCNS(=O)(=O)c1ccc(Cl)c(Cl)c1`, for which the melting point was in the range of 123 to 125 °C.

Turning to `O=C1C(=O)N(Cc2ccccc2)c2ccccc21`, the melting point is 92 to 94 °C.

`COC(=O)c1n[nH]c(=O)c2ccccc12`: the melting point lay within 127 to 129 °C.

Regarding `CCN1CCN(c2ccc(N)cc2)CC1`, the melting point fell in the range of 70 to 72 °C.

`Cc1ccc(NC(=O)C2CCNCC2)nc1` displayed a melting point of 145 to 147 °C.

Take `Cc1cc(C(=O)O)c(C(=O)O)s1`: the melting point was 210 to 212 °C.

Compound `O=C(O)c1nccn2ccnc12` displayed a melting point of 167 to 169 °C.

`Nc1cc2c(cc1N)OCCCO2` displayed a melting point of 122 to 124 °C.

Regarding `O=C(CCl)NC1CCN(C(=O)C2CCCCC2)CC1`, the melting point was in the range of 133 to 135 °C.

`COC(=O)c1cc(S(=O)(=O)N2CCOCC2)ccc1Cl` showed a melting point of 74 to 76 °C.

In turn, `Cc1cc(C(=O)N2CCCC2)ccc1N` returned a melting point of 124 to 126 °C.

Turning to `O=S1(=O)CCCN1c1ccccc1Br`, the melting point lay in the range of 115 to 117 °C.

Regarding `N#Cc1cccc(-c2nnc(N)o2)c1`, the melting point was 253 to 255 °C.

As for `CC(C)(C)c1nc2ccc(S(=O)(=O)Cl)cc2s1`, the melting point fell in the range of 122 to 124 °C.

The compound `O=C1CCCOc2c1ccc(Cl)c2Cl` came in with a melting point of 103 to 105 °C.

`CS(=O)(=O)c1ccc(N)c(Br)c1` displayed a melting point of 207 to 209 °C.

`Cc1ccc(-c2csc(NCCCC(=O)O)n2)s1` registered a melting point of 110 to 112 °C.

For the compound `Cc1nnc(-c2cccc(N)c2)n1C`, the melting point fell in the range of 189 to 191 °C.

The compound `Cc1nc(-c2cccc(N)c2)[nH]c1C` showed a melting point of 235 to 237 °C.

Compound `O=[N+]([O-])c1cc(F)c(S(=O)(=O)Cl)c(F)c1` returned a melting point of 73 to 75 °C.

With `O=C(O)CCCc1ccc2c(c1)CC(=O)N2`, the melting point was 180 to 182 °C.

`CC(NC(=O)OC(C)(C)C)C(N)=NO` (stereo not given) showed a melting point of 139 to 141 °C.

As for `CNc1nc(-c2ccccc2[N+](=O)[O-])cs1`, the melting point lay in the range of 139 to 141 °C.

`Nc1nc(C2CC2)c(Cc2ccccc2Cl)s1` had a melting point of 127 to 129 °C.

As to `O=C(Nc1ccc(O)c(C(=O)O)c1)c1cc(Cl)cc(Cl)c1`, the melting point was 288 to 290 °C.

Consider `Cc1ccc2oc(C(=O)O)c(C)c2c1`, for which the melting point is 180 to 182 °C.

On to `Cc1ccc(S(=O)(=O)Cl)cc1S(=O)(=O)N1CCCCC1`, for which the melting point is 111 to 113 °C.

In turn, `CCC(CC)CS(N)(=O)=O` showed a melting point of 33 to 35 °C.

As to `CCCS(=O)(=O)NC(C(=O)OCC)C(=O)OCC`, the melting point is 40 to 42 °C.

In the case of `NC(=NO)c1ccsc1`, the melting point was in the range of 66 to 68 °C.

`CC(NC(=O)c1ccc(S(=O)(=O)N(C)C)cc1)C(=O)O` (stereo not given) displayed a melting point of 180 to 182 °C.
